Consider 29 compounds from BindingDB's records for patent US10188615 (ACUCELA INC., 2019).

This experiment has as its target T1, Retinoid isomerohydrolase (Human, UniProt Q16518).
T1 sequence (Q16518 whole entry): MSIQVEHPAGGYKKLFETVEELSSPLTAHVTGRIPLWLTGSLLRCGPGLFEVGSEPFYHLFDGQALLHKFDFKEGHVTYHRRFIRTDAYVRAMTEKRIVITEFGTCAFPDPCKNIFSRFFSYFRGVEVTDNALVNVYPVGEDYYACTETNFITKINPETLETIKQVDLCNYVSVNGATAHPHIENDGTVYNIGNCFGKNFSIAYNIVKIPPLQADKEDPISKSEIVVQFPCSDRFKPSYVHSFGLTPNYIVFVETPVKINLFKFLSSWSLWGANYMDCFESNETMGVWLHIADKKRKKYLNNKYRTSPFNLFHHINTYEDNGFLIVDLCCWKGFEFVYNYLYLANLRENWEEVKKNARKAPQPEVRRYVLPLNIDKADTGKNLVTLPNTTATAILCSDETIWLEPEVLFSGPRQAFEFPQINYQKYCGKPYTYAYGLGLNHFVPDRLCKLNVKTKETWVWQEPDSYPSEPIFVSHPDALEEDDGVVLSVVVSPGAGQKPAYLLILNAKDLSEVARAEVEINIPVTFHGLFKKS
In words: In Vitro Isomerase Inhibition Assay.
For orientation: IC50 means the concentration needed to halve the response being measured. High values mean lower potency, low ones higher potency. In the case of `NCCC(O)c1cccc(OCC(O)c2ccccc2)c1` (centres undefined) [US10188615, Example 161], the IC50 entry is “in the range around 55 nM”.
The result for `NCC[S+]([O-])c1cccc(OCC2CCCCC2)c1` (centres undefined) [US10188615, Example 124] reads “in the range around 550 nM”; that for `CCC(CC)COc1cccc(OCCN)c1` [US10188615, Example 36], “in the range around 55 nM”; that for `COc1ccccc1COc1cccc(CCCN)c1` [US10188615, Example 38], “in the range around 550 nM”.
Next, `CCCCCOc1cccc(OCCN)c1` [US10188615, Example 90]: “in the range around 55 nM”; `NCCOc1cccc(OCCCCCOCc2ccccc2)c1` [US10188615, Example 134]: “in the range around 5500 nM”; `Cc1c(OCCN)cccc1OCC1CCCCC1` [US10188615, Example 164]: “in the range around 550 nM”.
The result for `NCCSc1cccc(OCC2CCCCC2)c1` [US10188615, Example 123] reads “in the range around 55 nM”; that for `NC/C=C/c1cc(F)cc(OCC2CCCCC2)c1` [US10188615, Example 198], “in the range around 550 nM”.
Regarding `NCCC(O)c1cccc(OCCCCCO)c1` (centres undefined) [US10188615, Example 166], the IC50 entry was “in the range around 55 nM”.
Take `CN(C)C(=O)CCCOc1cccc(OCCN)c1` [US10188615, Example 138]: the IC50 entry was “in the range around 5500 nM”.
The result for `CCCC(O)COc1cccc(C(O)CCN)c1` (centres undefined) [US10188615, Example 163] reads “in the range around 55 nM”; that for `NCCC(O)c1cccc(OCC2CC2)c1` (centres undefined) [US10188615, Example 71], “in the range around 55 nM”.
With `COCCCCOc1cccc(CCCN)c1` [US10188615, Example 41], the IC50 entry is “in the range around 550 nM”.
The result for `CN(CCN)c1cccc(OCC2CCCCC2)c1` [US10188615, Example 128] reads “in the range around 5500 nM”.
Next, `CNC(=O)CCCOc1cccc(OCCN)c1` [US10188615, Example 133]: “in the range around 5500 nM”; `NCCOc1cccc(OCC(O)c2ccccc2)c1` (centres undefined) [US10188615, Example 145]: “in the range around 5500 nM”.
For the compound `NCCCCc1cccc(OCC2CCCCC2)c1` [US10188615, Example 184], the IC50 result is “in the range around 5500 nM”.
`NCCCc1cccc(OCC2(O)CCCCCCC2)c1` [US10188615, Example 135]: the IC50 entry is “in the range around 550 nM”.
On to `CCC(CC)COc1cccc(O[C@@H](C)CN)c1` [US10188615, Example 62], for which the IC50 entry is “in the range around 550 nM”.
Next, `N=C(N)NCc1cccc(OCC2CCCCC2)c1` [US10188615, Example 190]: “in the range around 5500 nM”; `NCCOc1cccc(OCC2(O)CCCCCC2)c1` [US10188615, Example 18]: “in the range around 550 nM”.
Consider `NCCCc1cccc(OCCCCCO)c1` [US10188615, Example 151], for which the IC50 entry is “in the range around 550 nM”.
Regarding `NCCCc1cc(CO)cc(OCC2CCCCC2)c1` [US10188615, Example 142], the 50% inhibitory concentration (IC50) entry was “in the range around 5500 nM”.
The result for `CNCCC(=O)c1cccc(OCC2CCCCC2)c1` [US10188615, Example 181] reads “in the range around 550 nM”.
Take `NCCOc1cccc(OCCCC(N)=O)c1` [US10188615, Example 144]: the IC50 entry is “in the range around 5500 nM”.
Consider `NCCOc1cccc(OCc2c(Cl)cccc2Cl)c1` [US10188615, Example 84], for which the IC50 result is “in the range around 550 nM”.
Next, `NCC[C@@H](O)c1cc(O)cc(OCC2CCCCC2)c1` [US10188615, Example 179]: “in the range around 55 nM”; `CCCC(O)COc1cccc(OCCN)c1` (centres undefined) [US10188615, Example 159]: “in the range around 5500 nM”.
